According to patent publication US5482943A, “(6-fluoro-1,2-benzisoxazol-3-yl)-1-piperidinyl-alkyl-(2, 9-disubstituted-4H-pyrido[1,2-a]pyrimidin-4-one) derivatives” (Janssen Pharmaceutica N.V., priority 1990, dated 1996):

Assays:
dopamine [1] = test: Apomorphine antagonism in rats (inhibition of apomorphine-induced agitation and stereotypy); format: in vivo; settings: Rattus norvegicus, read-out: ED50 for inhibition of apomorphine-induced symptoms
From the text: Apomorphine Antagonism in Rats
The test procedure is described in Arch. Int. Pharmacodyn. […] In Table 1 are listed the ED50 values (mg/kg) for inhibition of apomorphine-induced symptoms obtained with compound (1) and the subsequent apomorphine challenge at different intervals (time).

dopamine [2] = test: Apomorphine antagonism in dogs (absence of apomorphine-induced emesis); format: in vivo, dog; settings: Canis lupus familiaris
Protocol: Apomorphine Antagonism in Dogs
This test is described in Psychopharmacol. 78, 210-213 (1982) and provides--besides a measure of the potency--a good measure of the duration of action of the tested compounds as dopamine antagonists. Apomorphine (0.31 mg/kg, sc; 4 times the ED95) induced emesis in all control dogs. At different time intervals before the apomorphine challenge, the dogs were pretreated with different doses (iv, sc or po) of the test compound (1). Complete absence of emesis for 1 hour after the challenge was adopted as the criterion for apomorphine antagonism in dogs. Listed are the ED50 values (mg/kg) obtained with compound (1) at different intervals after iv, sc or po administration.

dopamine [3] = test: Amphetamine antagonism in rats (agitation and oxygen hyperconsumption); format: in vivo; settings: Rattus norvegicus, 0.75 h, compound sc, after 45 min amphetamine 2.5 mg/kg sc
Protocol: Amphetamine Antagonism in Rats
This test procedure is described in Industrial Pharmacology, Part II, Antidepressants, eds, S. Fielding and H. Lal, p. 125-141, Futura Publishing Company (1975). Solvent (controls) or the test compound (1) were injected sc, followed after 45 min by amphetamine (2.5 mg/kg, sc). Starting 15 min after the amphetamine injection, agitation and consumption of oxygen were evaluated every 15 min over a period of 1 hour. Agitation was scored 3 (pronounced), 2 (moderate), 1 (slight) and 0 (absent), the total score maximally being 4×3=12. Oxygen consumption was measured on a mercury manometer simultaneously. Significant inhibition required a total score for agitation of less than 11 (0.3% in controls) or a final scale reading for oxygen consumption of less than 105 Hg units (1.8% in controls; mean=118 units). Blockade of amphetamine-induced agitation was considered complete at a total score of less than 4 and that of oxygen consumption at a scale reading of less than 90 Hg units (i.e. the agitation score and oxygen consumption level of normal rats which is never observed in amphetamine-treated controls). Listed are the ED50 values (mg/kg) obtained with compound (1) and the subsequent amphetamine challenge.

Cc1nc2c(C)cccn2c(=O)c1CCN1CCC(c2noc3cc(F)ccc23)CC1 [Compound 1, 3-[2-[4-(6-fluoro-1,2-benzisoxazol-3-yl)-1-piperidinyl]ethyl]-2,9-dimethyl-4H-pyrido[1,2-a]-pyrimidin-4-one]
ED50 (dopamine [1]; Time 0.5 between compound and apomorphine challenge (1.25 mg/kg iv)): 21 µg/kg | ED50 (dopamine [1]; Time 1 between compound and apomorphine challenge (1.25 mg/kg iv)): 18 µg/kg | ED50 (dopamine [1]; Time 2 between compound and apomorphine challenge (1.25 mg/kg iv)): 32 µg/kg | ED50 (dopamine [1]; Time 4 between compound and apomorphine challenge (1.25 mg/kg iv)): 68 µg/kg | ED50 (dopamine [1]; Time 8 between compound and apomorphine challenge (1.25 mg/kg iv)): 290 µg/kg | ED50 (dopamine [2]; iv, 0.5 h before apomorphine 0.31 mg/kg sc, read-out: ED50 (iv)): 1.2 µg/kg | ED50 (dopamine [2]; iv, 1 h before apomorphine 0.31 mg/kg sc, read-out: ED50 (iv)): 1.1 µg/kg | ED50 (dopamine [2]; iv, 2 h before apomorphine 0.31 mg/kg sc, read-out: ED50 (iv)): 1.2 µg/kg | ED50 (dopamine [2]; iv, 4 h before apomorphine 0.31 mg/kg sc, read-out: ED50 (iv)): 0.79 µg/kg | ED50 (dopamine [2]; iv, 8 h before apomorphine 0.31 mg/kg sc, read-out: ED50 (iv)): 0.89 µg/kg | ED50 (dopamine [2]; iv, 16 h before apomorphine 0.31 mg/kg sc, read-out: ED50 (iv)): 1.2 µg/kg | ED50 (dopamine [2]; iv, 32 h before apomorphine 0.31 mg/kg sc, read-out: ED50 (iv)): 2.9 µg/kg | ED50 (dopamine [2]; po, 0.5 h before apomorphine 0.31 mg/kg sc, read-out: ED50 (po)): 5 µg/kg | ED50 (dopamine [2]; po, 1 h before apomorphine 0.31 mg/kg sc, read-out: ED50 (po)): 1.5 µg/kg | ED50 (dopamine [2]; po, 2 h before apomorphine 0.31 mg/kg sc, read-out: ED50 (po)): 0.89 µg/kg | ED50 (dopamine [2]; po, 4 h before apomorphine 0.31 mg/kg sc, read-out: ED50 (po)): 1.2 µg/kg | ED50 (dopamine [2]; po, 8 h before apomorphine 0.31 mg/kg sc, read-out: ED50 (po)): 0.99 µg/kg | ED50 (dopamine [2]; po, 16 h before apomorphine 0.31 mg/kg sc, read-out: ED50 (po)): 2.4 µg/kg | ED50 (dopamine [2]; po, 32 h before apomorphine 0.31 mg/kg sc, read-out: ED50 (po)): 6.3 µg/kg | ED50 (dopamine [2]; sc, 0.5 h before apomorphine 0.31 mg/kg sc, read-out: ED50 (sc)): 4.5 µg/kg | ED50 (dopamine [2]; sc, 1 h before apomorphine 0.31 mg/kg sc, read-out: ED50 (sc)): 2.4 µg/kg | ED50 (dopamine [2]; sc, 2 h before apomorphine 0.31 mg/kg sc, read-out: ED50 (sc)): 1.4 µg/kg | ED50 (dopamine [2]; sc, 4 h before apomorphine 0.31 mg/kg sc, read-out: ED50 (sc)): 0.89 µg/kg | ED50 (dopamine [2]; sc, 8 h before apomorphine 0.31 mg/kg sc, read-out: ED50 (sc)): 1.2 µg/kg | ED50 (dopamine [2]; sc, 16 h before apomorphine 0.31 mg/kg sc, read-out: ED50 (sc)): 2.2 µg/kg | ED50 (dopamine [2]; sc, 32 h before apomorphine 0.31 mg/kg sc, read-out: ED50 (sc)): 4.5 µg/kg | ED50 (dopamine [3]; blockade: agitation score <4, read-out: ED50, blockade of amphetamine-induced agitation): 64 µg/kg | ED50 (dopamine [3]; blockade: scale reading <90 Hg units, read-out: ED50, blockade of oxygen hyperconsumption): 190 µg/kg | ED50 (dopamine [3]; inhibition: agitation score <11, read-out: ED50, inhibition of amphetamine-induced agitation): 14 µg/kg | ED50 (dopamine [3]; inhibition: scale reading <105 Hg units, read-out: ED50, inhibition of oxygen hyperconsumption): 57 µg/kg
